Source: patent US20250242064A1, “CXCR4-TARGETING COMPOUNDS, AND METHODS OF MAKING AND USING THE SAME” (PROVINCIAL HEALTH SERVICES AUTHORITY, priority 2022, published 2025)
Read-outs that look alike come from different tables or passages of the source. Where a SMILES comes first, the peptide text is derived from it. Bridges are numbered along the chain shown (N, C = ends). Side-chain parts run from the residue outwards. [ ]: non-standard residue; d: D form. The star is where a group is joined. DOTA = O=C(O)CN1CCN(CC(=O)O)CCN(CC(=O)*)CCN(CC(=O)O)CC1; Butanoyl(4-(4-MeO-phenyl)) = COc1ccc(CCCC(=O)*)cc1; 2Nal = N[C@@H](Cc1ccc2ccccc2c1)C(=O)O; Lys(iPr) = CC(C)NCCCC[C@H](N)C(=O)O; Cya = N[C@@H](CS(=O)(=O)O)C(=O)O

Assays:
CXCR4 [1] = biological target: T1, CXCR4 (Homo sapiens, UniProt P61073); experiment: Competitive binding assay, [125I]SDF-1α displacement on CHO:CXCR4 cells; parameters: expressed in transfected cells; host or cells: CHO:CXCR4 cells; details: [125I]SDF-1α 0.01 nM, 1 h at 27° C., read-out: IC50 (nM), binding affinity for hCXCR4
Description: CHO:CXCR4 cells were seeded at a density of 1×10^5 cells/well in 24-well poly-D-lysine coated plates (Corning BioCoat) and incubated with [^125I]SDF-1α (0.01 nM, PerkinElmer) and competing nonradioactive ligands ([…]). The cells, radioligand, and competing peptides were incubated for 1 h at 27° C. with moderate shaking. Following the incubation period, the supernatant was aspirated, followed by three washes with 1 mL of ice-cold PBS. Cells were harvested with 200 μL of trypsin and counted on a y counter. Data were plotted in GraphPad Prism 7 to determine IC50 values (GraphPad Software, Inc., La Jolla, CA). The values are reported as mean±standard deviation.
Target sequence in this assay (P61073 whole entry): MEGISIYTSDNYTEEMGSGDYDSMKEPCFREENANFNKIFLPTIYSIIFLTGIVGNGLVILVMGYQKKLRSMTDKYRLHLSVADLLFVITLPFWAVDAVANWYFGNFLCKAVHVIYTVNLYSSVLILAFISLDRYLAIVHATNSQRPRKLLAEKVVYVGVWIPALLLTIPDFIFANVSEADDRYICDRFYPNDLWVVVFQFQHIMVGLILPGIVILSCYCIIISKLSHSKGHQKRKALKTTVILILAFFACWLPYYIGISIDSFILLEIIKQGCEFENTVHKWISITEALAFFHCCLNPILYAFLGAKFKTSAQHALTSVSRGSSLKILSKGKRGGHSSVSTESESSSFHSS

CXCR4 [2] = biological target: T1, CXCR4; details: reported; read-out: IC50, block of SDF-1a binding to CXCR4; cited from earlier work
Target sequence in this assay (P61073 whole entry, species assumed): as the sequence (P61073 whole entry) above

[3] = tested on: non-Hodgkin lymphoma, renal cell carcinoma, lung cancer, colorectal cancer, and breast cancer xenograft models; details: reported; cited from earlier work
[4] = tested on: small cell lung cancer patients; details: reported; cited from earlier work

| Molecule | IC50 (CXCR4 [1]) [nM] | IC50 (CXCR4 [2]) [nM] | inhibition of growth of xenograft models [3] | treatment efficacy with carboplatin/etoposide chemotherapy [4] |
| --- | --- | --- | --- | --- |
| COc1ccc(CCCC(=O)NCCCC[C@H](NC(=O)[C@H](CCCCNC(C)C)NC(=O)[C@H]2CCC(=O)N[C@@H](CCCCNC(=O)[C@H](CS(=O)(=O)O)NC(=O)CN3CCN(CC(=O)O)CCN(CC(=O)O)CCN(CC(=O)O)CC3)C(=O)N[C@@H](Cc3ccc(O)cc3)C(=O)N[C@@H](CCCCNC(C)C)C(=O)N[C@H](CCCNC(=N)N)C(=O)N[C@@H](Cc3ccc4ccccc4c3)C(=O)N[C@H](C)C(=O)N2)C(N)=O)cc1 [BL34L8] (K([Cya-DOTA])Y[Lys(iPr)][dR][2Nal][dA][dE][Lys(iPr)]K(Butanoyl(4-(4-MeO-phenyl)))-NH2; lactam N-7) | > 100 |  |  |  |
| cyclo[Phe-Tyr-Lys(iPr)-D-Arg-2-Nal-Gly-D-Glu]-Lys(iPr)-NH2 [LY2510924] |  | 0.079 | able to inhibit growth | failed to improve treatment efficacy |
